# Tested on: perception of sweet taste, in an aqueous solution, in humans
# Test: Inherent sweetness assessment, difference from control "sip and spit" method
# Assay type: in vivo
# Settings: no sweetener
# Method: The taste test panelists used in the Examples 1-3 were selected using a sensory acuity screening program. Candidate taste panelists were recruited, with prescreening and personal interviews, and were assessed and for their ability to detect, recognize and differentiate basic taste attributes or mixtures thereof as part of a standardized acuity test. This included basic tastes of sweet, sour, salty, bitter and umami, as well as having the capacity to focus on specific aspects of sensory character such as ranking the various tastes perceived and identifying the basic tastes presented at threshold levels.
# The aqueous sucrose solutions were prepared by adding, sucrose (by weight), to water to achieve the desired concentration.
# Compounds were first prepared as a 500-fold concentrated stock solution in 100% ethanol. These concentrated stocks were then added to water to result in a final ethanol concentration of 0.2%. The control (including positive control) samples were also normalized to 0.2% ethanol. This level of ethanol was not seen to contribute any perceived sweetness.
# The intrinsic effect of test compounds on the perception of sweet taste, in an aqueous solution, in humans was evaluated using a difference from control “sip and spit” method employing a verbal category scale.
# In this method, panelists (n=12) evaluate one pair of samples at a time—one sample contains water plus compound (i.e. test) while the other contains water without compound (i.e. control). Panelists were instructed to first taste the un-blinded control followed by the test sample and asked to rate the size of sweetness difference between the test and control sample, using a 6 point verbal category scale:
# Verbal Category Scale • No difference • Slight difference • Slight/moderate difference • Moderate difference • Moderate/large difference • Very large difference […]
structure (smiles),measurement,setting,value
"COc1ccc(C2CC(=O)c3c(O)cccc3O2)cc1O (racemic) [Compound 1, 5-hydroxy-2-(3-hydroxy-4-methoxyphenyl)chroman-4-one]",Correlated Inherent Sweetness Assessment,compound 10 ppm in water,0% sucrose
same,Correlated Inherent Sweetness Assessment,compound 15 ppm in water,0%-0.5%
same,Correlated Inherent Sweetness Assessment,compound 25 ppm in water,0%-0.5%

# — patent US20150050410A1, “COMPOUNDS, COMPOSITIONS, AND METHODS FOR MODULATING SWEET TASTE” (Chromocell Corporation, priority 2013, published 2015)
